Results as given in publication PMC5031509 (ACS chemical neuroscience, 2016).

What was measured:
in vivo [1] = settings: rat, po, 10 mg/kg
in vivo [2] = settings: rat, iv, 1 mg/kg
[3] = target: T1, monoamine oxidase-B (MAO-B) (Homo sapiens, UniProt P27338); test: wider selectivity panel, MAO-B
T1 sequence (P27338 1-520): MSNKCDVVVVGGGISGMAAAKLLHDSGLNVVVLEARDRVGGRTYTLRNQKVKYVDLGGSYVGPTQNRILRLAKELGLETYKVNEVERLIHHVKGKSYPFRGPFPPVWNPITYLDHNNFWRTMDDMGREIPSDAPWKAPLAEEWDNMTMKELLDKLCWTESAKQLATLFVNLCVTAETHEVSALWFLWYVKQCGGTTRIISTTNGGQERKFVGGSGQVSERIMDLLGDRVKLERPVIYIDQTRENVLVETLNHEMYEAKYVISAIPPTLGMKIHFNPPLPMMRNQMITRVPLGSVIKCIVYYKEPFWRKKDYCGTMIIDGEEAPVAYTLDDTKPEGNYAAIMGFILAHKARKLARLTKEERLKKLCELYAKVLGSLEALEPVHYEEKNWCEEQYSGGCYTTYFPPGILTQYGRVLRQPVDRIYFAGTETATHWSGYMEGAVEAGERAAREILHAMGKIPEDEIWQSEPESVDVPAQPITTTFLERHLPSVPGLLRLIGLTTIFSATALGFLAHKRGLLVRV

Met ID = assay type: in vitro ADME; settings: rat liver microsomes
[4] = test system: panel of 96 kinase targets; test: DiscoveRx KINOMEscan kinase panel; assay type: binding
[5] = test system: panel of GPCRs, enzymes, ion channels, nuclear hormone receptors and transporters; test: wider selectivity panel; settings: all targets except MAO-B
CYP3A4 = CYP3A4 (Homo sapiens, UniProt P08684); test: CYP450 inhibition, cocktail approach in human liver microsomes; assay type: in vitro ADME
P-glycoprotein (Pgp) = P-glycoprotein (Pgp) (Homo sapiens, UniProt P08183); test: Permeability; assay type: in vitro ADME
[6] = plasma protein binding, mouse; assay type: in vitro ADME
CYP1A2 [7] = target: T2, CYP1A2 (Homo sapiens, UniProt P05177); test: CYP450 inhibition, cocktail approach in human liver microsomes; assay type: in vitro ADME
T2 sequence (P05177 1-516): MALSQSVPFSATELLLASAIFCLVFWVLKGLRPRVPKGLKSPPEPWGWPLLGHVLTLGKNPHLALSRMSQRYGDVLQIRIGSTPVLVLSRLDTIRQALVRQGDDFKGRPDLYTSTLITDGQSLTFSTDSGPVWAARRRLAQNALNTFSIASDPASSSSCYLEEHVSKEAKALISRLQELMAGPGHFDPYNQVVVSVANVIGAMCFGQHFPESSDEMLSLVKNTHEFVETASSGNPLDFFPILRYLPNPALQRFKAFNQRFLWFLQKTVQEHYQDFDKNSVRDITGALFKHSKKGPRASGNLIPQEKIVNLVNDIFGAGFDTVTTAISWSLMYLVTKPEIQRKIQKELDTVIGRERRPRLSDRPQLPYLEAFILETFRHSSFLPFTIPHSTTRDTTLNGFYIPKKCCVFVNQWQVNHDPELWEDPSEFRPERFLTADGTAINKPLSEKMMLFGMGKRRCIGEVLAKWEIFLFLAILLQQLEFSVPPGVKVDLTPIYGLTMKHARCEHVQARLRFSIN

mGlu6 = mGlu6 (Homo sapiens, UniProt O15303); test: mGlu selectivity assays in fold-shift format; assay type: cell-based
CYP2C9 = CYP2C9 (Homo sapiens, UniProt P11712); test: CYP450 inhibition, cocktail approach in human liver microsomes; assay type: in vitro ADME
[8] = plasma protein binding, human; assay type: in vitro ADME
rat mGlu4 = rat mGlu4 (Rattus norvegicus, UniProt P31423); test: functional assay using the rat mGlu4 protein; assay type: cell-based
CYP2D6 = CYP2D6 (Homo sapiens, UniProt P10635); test: CYP450 inhibition, cocktail approach in human liver microsomes; assay type: in vitro ADME
CYP2C19 = CYP2C19 (Homo sapiens, UniProt P33261); test: CYP450 inhibition; assay type: in vitro ADME
[9] = plasma/brain PO snapshot study in rats; assay type: in vivo, rat
[10] = plasma protein binding, rhesus; assay type: in vitro ADME; settings: rhesus monkey
[11] = plasma protein binding, rat; assay type: in vitro ADME
[12] = test system: nine cardiac ion channels (including hERG); test: ChanTest Cardiac Channel Panel IC50 screen; settings: human
[13] = in vivo PK, rhesus IV cassette; settings: rhesus monkey, plasma
CYP1A2 [14] = test: CYP1A2 induction in cryopreserved hepatocytes; assay type: cell-based, human
[15] = plasma protein binding, dog; assay type: in vitro ADME

Sequence of P-glycoprotein (Pgp) (P08183 whole entry): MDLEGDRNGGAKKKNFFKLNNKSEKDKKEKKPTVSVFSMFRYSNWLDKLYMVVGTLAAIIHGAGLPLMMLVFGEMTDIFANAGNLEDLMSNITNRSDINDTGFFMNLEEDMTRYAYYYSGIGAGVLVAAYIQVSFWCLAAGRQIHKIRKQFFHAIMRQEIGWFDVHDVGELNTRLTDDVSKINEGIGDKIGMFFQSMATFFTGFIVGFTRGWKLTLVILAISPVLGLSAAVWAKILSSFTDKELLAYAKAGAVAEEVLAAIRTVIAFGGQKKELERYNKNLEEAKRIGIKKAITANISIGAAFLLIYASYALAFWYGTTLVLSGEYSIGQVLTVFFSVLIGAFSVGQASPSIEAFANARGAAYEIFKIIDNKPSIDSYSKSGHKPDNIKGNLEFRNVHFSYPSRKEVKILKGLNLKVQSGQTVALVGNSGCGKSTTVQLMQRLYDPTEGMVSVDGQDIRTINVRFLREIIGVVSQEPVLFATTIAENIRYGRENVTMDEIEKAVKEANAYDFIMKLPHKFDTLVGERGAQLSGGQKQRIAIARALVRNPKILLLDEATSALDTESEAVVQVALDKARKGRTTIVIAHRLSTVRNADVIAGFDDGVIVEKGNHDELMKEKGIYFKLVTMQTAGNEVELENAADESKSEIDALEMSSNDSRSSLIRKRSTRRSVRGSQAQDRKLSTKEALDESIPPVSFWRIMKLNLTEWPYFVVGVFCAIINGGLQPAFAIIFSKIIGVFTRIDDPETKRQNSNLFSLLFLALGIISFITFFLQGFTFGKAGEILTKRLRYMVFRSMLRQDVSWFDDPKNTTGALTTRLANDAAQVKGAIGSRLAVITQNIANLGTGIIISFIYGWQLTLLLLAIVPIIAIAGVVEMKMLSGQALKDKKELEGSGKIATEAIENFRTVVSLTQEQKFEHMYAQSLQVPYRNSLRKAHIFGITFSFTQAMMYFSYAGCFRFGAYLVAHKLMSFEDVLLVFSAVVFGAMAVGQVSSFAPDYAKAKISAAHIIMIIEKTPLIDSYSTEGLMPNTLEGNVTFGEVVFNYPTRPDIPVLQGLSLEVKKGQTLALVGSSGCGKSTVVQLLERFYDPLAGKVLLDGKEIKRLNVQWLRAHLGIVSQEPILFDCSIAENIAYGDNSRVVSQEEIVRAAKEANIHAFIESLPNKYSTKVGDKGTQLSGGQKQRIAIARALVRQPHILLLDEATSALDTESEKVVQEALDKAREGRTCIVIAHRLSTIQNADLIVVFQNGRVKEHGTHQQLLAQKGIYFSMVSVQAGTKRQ
Sequence of CYP3A4 (P08684 whole entry): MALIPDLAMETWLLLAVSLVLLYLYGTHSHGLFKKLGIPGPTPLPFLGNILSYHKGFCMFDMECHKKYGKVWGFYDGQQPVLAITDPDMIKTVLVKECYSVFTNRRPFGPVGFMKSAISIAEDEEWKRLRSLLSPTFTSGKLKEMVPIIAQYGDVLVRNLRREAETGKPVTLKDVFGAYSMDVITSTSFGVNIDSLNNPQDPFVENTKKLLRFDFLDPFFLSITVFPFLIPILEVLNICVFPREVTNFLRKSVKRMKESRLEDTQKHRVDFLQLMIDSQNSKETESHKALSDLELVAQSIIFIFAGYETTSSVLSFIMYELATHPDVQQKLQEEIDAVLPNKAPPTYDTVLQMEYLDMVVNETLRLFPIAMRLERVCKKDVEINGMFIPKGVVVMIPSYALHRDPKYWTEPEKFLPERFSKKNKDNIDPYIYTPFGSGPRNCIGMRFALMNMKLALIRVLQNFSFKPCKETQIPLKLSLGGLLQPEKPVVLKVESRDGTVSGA
Sequence of CYP2D6 (P10635 whole entry): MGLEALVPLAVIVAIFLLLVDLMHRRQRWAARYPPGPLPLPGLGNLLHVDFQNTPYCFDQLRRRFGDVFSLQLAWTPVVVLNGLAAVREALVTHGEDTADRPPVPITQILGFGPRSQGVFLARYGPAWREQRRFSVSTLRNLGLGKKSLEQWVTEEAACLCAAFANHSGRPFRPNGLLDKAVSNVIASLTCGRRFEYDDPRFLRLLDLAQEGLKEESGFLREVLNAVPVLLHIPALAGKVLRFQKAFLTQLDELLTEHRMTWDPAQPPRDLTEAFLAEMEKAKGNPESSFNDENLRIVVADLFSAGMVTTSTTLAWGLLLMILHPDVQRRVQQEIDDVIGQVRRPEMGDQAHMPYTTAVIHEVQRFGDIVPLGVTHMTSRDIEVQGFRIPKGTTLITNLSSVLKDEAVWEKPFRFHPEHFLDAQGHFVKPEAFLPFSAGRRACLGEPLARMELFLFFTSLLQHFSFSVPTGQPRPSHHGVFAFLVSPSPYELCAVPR
Sequence of CYP2C9 (P11712 whole entry): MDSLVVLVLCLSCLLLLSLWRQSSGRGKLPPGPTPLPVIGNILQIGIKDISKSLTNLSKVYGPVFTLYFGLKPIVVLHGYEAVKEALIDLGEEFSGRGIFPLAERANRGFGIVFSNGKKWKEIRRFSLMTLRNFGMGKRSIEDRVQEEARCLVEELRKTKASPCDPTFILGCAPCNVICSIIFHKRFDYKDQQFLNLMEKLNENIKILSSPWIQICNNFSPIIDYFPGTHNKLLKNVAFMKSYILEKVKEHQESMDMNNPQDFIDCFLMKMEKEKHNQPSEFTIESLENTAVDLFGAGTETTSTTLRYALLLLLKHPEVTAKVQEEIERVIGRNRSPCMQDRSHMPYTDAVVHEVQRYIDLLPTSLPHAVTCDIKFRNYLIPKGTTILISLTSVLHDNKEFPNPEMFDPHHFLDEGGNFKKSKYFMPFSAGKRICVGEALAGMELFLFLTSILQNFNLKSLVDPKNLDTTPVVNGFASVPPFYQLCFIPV
Sequence of CYP2C19 (P33261 whole entry): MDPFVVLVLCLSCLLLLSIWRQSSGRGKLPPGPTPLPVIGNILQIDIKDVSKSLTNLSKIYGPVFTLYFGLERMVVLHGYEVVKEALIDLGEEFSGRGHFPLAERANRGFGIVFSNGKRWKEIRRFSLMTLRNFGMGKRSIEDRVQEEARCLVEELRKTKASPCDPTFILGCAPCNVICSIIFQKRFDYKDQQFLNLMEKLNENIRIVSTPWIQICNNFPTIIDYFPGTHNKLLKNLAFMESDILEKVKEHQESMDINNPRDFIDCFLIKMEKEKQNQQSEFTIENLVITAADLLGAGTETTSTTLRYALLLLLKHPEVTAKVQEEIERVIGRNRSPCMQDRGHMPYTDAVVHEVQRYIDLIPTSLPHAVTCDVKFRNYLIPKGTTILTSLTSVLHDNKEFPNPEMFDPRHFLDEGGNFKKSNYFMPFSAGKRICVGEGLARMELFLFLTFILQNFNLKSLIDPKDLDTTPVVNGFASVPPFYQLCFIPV
Sequence of mGlu6 (O15303 25-877): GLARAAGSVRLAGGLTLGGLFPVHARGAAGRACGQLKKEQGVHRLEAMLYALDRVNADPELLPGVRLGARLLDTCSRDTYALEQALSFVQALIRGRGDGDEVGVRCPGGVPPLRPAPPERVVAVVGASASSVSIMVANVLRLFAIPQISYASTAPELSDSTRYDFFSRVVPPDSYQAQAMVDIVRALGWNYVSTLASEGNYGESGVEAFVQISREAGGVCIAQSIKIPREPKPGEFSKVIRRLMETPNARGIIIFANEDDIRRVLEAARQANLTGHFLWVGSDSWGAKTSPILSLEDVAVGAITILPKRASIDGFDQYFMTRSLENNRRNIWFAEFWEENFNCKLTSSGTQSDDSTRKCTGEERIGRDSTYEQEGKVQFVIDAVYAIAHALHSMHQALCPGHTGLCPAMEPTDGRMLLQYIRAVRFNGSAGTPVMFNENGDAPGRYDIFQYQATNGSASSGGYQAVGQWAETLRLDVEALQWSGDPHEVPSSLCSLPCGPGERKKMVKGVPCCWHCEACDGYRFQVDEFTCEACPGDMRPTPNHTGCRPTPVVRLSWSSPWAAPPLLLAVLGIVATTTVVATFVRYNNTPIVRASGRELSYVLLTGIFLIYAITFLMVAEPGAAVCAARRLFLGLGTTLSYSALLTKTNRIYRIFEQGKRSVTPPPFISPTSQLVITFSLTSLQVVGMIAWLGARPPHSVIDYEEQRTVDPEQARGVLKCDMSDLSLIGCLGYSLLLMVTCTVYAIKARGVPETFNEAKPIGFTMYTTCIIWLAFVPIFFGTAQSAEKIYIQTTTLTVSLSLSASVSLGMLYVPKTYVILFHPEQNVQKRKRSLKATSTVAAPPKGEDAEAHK
Sequence of rat mGlu4 (P31423 33-912): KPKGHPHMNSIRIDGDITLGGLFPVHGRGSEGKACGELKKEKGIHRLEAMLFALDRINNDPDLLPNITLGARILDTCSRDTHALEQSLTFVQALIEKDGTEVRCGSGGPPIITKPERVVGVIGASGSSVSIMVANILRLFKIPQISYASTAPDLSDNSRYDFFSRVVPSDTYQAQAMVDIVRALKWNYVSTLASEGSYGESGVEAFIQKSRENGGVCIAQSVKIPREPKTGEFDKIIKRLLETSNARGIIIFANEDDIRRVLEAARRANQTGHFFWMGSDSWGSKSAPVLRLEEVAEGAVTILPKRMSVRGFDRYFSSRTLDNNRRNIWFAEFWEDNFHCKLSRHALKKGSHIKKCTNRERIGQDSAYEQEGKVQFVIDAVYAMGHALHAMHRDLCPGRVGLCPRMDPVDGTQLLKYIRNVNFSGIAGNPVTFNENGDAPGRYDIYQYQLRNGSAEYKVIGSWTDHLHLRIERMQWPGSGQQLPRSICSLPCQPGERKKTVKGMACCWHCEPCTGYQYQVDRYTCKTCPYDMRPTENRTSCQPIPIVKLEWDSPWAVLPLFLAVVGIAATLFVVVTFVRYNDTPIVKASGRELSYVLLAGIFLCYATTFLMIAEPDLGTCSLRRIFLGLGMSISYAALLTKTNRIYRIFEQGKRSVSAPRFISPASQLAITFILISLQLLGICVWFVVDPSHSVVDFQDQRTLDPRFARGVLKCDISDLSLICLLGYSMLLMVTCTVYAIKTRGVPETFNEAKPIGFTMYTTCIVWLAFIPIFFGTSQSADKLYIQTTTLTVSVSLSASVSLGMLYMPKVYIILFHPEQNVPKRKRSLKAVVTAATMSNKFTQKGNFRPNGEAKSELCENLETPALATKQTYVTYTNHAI

## Fc1ccc(Nc2n[nH]c3cccnc23)cc1Cl [Compound 26, N-(3-chloro-4-fluorophenyl)-1H-pyrazolo[4,3-b]pyridin-3-amine]
In vivo [1]; in vivo
  bioavailability: 95%
In vivo [1]; plasma
  AUC: 7420 ng·h/mL
  Cmax: 875 ng/mL
  Tmax: 2 h
In vivo [2]
  AUC: 608 ng·h/mL
  MRT: 2.2 h
  Vd: 4 L/kg
  clearance: 29 mL/min/kg
  half-life: 1.52 h
[3]
  activity against MAO-B: 330 nM
Met ID
  major metabolite: oxodefluorination
[4]
  activity against 96 kinase targets: < 30%
[5]
  activity against wider panel of targets: inactive
CYP3A4
  IC50: > 30 µM
P-glycoprotein (Pgp)
  substrate for P-glycoprotein: not a substrate
P-glycoprotein (Pgp); not told
  Papp A→B: 24 ×10⁻⁶ cm/s
  Papp B→A: 14 ×10⁻⁶ cm/s
[6]
  fraction unbound: 0.019
CYP1A2 [7]
  IC50: < 0.1 µM
mGlu6
  activity at mGlu6: functionally interact (with equipotency)
CYP2C9
  IC50: 8.9 µM
[8]
  plasma protein binding (%Fu): 1.7%
[8]; plasma
  fraction unbound: 0.017
Rat mGlu4
  EC50: 0.046 µM
CYP2D6
  IC50: > 30 µM
CYP2C19
  IC50: 6.1 µM
[9]; rat CNS PO PBL (0−6 h)
  brain AUC: 18 415 ng·h/mL
[9]; rat, brain/plasma, po
  Kp at 6 h: 2.1
[9]; rat, plasma, po
  AUC: 8770 ng·h/mL
TA98 and TA100
  mini-AMES result: negative
[10]
  fraction unbound: 0.014
[11]; plasma protein binding (%Fu)
  fraction unbound: 0.028
[11]; plasma protein binding (Fu), rat plasma, fraction unbound
  fraction unbound: 0.028
[12]
  IC50: > 100 µM
[13]
  clearance: 13 mL/min/kg
  half-life: 3 h
CYP1A2 [14]
  CYP1A2 induction Emax: 104 fold-induction
CYP1A2 [14]; human
  EC50: 9.8 µM
[15]
  fraction unbound: 0.009
